The record followed here is ChEMBL document CHEMBL5055665, “Discovery of the Triazolo[1,5-a]Pyrimidine-Based Derivative WS-898 as a Highly Efficacious and Orally Bioavailable ABCB1 Inhibitor Capable of Overcoming Multidrug Resistance” (J Med Chem, 2021).

Each structure is given as a SMILES string.

Data set [1] has as its system SW-620. As to the kind of experiment: Reversal of resistance to paclitaxel-induced cytotoxicity in human SW-620/AD300 cells assessed as reduction in paclitaxel IC50 at 20 uM preincubated for 4 hrs followed by paclitaxel addition and measured after 72 hrs by MTT assay (reference value: 4.23 +/- 0.50 uM). The class given is functional, cell-based. (Tetrazolium dyes change colour on reduction, which living cells bring about.)

Data set [2] relates to SW-620. As to the kind of experiment: Reversal of resistance to paclitaxel-induced cytotoxicity in human SW-620/AD300 cells assessed as reversal fold at 20 uM preincubated for 4 hrs followed by paclitaxel addition and measured after 72 hrs by MTT assay relative to paclitaxel. The class given is functional. As to conditions: time 76 hrs.
Data set [3] relates to SW-620. Description: Reversal of resistance to paclitaxel-induced cytotoxicity in human SW-620/AD300 cells assessed as reduction in paclitaxel IC50 at 8 uM preincubated for 4 hrs followed by paclitaxel addition and measured after 72 hrs by MTT assay (reference value: 4.23 +/- 0.50 uM). The class given is functional, cell-based.
Data set [4] has as its system SW-620. Description: Reversal of resistance to paclitaxel-induced cytotoxicity in human SW-620/AD300 cells assessed as reversal fold at 8 uM preincubated for 4 hrs followed by paclitaxel addition and measured after 72 hrs by MTT assay relative to paclitaxel. Conditions: time 76 hrs. The class given is functional.
In data set [5] the test system is SW-620. Description: Reversal of resistance to paclitaxel-induced cytotoxicity in human SW-620/AD300 cells assessed as reduction in paclitaxel IC50 at 6 uM preincubated for 4 hrs followed by paclitaxel addition and measured after 72 hrs by MTT assay (reference value: 4.23 +/- 0.50 uM). The class given is functional, cell-based.
For data set [6], the system named is SW-620. As to the kind of experiment: Reversal of resistance to paclitaxel-induced cytotoxicity in human SW-620/AD300 cells assessed as reversal fold at 6 uM preincubated for 4 hrs followed by paclitaxel addition and measured after 72 hrs by MTT assay relative to paclitaxel. The class given is functional. As to conditions: time 76 hrs.
Data set [7] deals with SW-620. Description: Antitumor activity against human SW-620/AD300 cells xenografted in BALB/c nude mouse assessed as tumor growth inhibition at 5 mg/kg, iv administered once ever 3 days for 21 days. The class given is functional. Also on record: scale not given: the % may be the effect or the level left.
In data set [8] the test system is Mus musculus. As to the kind of experiment: Toxicity in BALB/c mouse xenografted with human SW-620/AD300 cells assessed as change in body weight at 5 mg/kg, iv administered once every 3 days. The class given is organism-based. Conditions: in vivo, 72 h, time 3 day.
Data set [9] relates to Mus musculus. As to the kind of experiment: Toxicity in BALB/c mouse xenografted with human SW-620/AD300 cells assessed as mortality at 5 mg/kg, iv administered once every 3 days. The class given is organism-based. As to conditions: in vivo, 72 h, time 3 day. On the technique in general: A xenograft is tissue or cells of one species grown in another, often human tumour cells in immunodeficient mice.

In another data set the test system is KB 3-1. Description: Reversal of resistance to paclitaxel-induced cytotoxicity in human KB 3-1 cells assessed as reduction in paclitaxel IC50 at 4 uM preincubated for 4 hrs followed by paclitaxel addition and measured after 72 hrs by MTT assay (reference value: 4.54 +/- 1.59 nM). The class given is functional, cell-based.
For another data set, the system named is KB-C2. As to the kind of experiment: Reversal of resistance to paclitaxel-induced cytotoxicity in human KB-C2 cells assessed as reduction in paclitaxel IC50 at 4 uM preincubated for 4 hrs followed by paclitaxel addition and measured after 72 hrs by MTT assay (reference value: 1886.37 +/- 243.05 nM). The class given is functional, cell-based.
Data set [10] has as its system HEK293. Description: Reversal of resistance to paclitaxel-induced cytotoxicity in human HEK293/pcDNA3.1 cells assessed as reduction in paclitaxel IC50 at 4 uM preincubated for 4 hrs followed by paclitaxel addition and measured after 72 hrs by MTT assay (reference value: 1.93 +/- 0.06 nM). The class given is functional, cell-based.
Data set [11] deals with HEK293. Description: Reversal of resistance to paclitaxel-induced cytotoxicity in human HEK293/ABCB1 cells assessed as reduction in paclitaxel IC50 at 4 uM preincubated for 4 hrs followed by paclitaxel addition and measured after 72 hrs by MTT assay (reference value: 91.40 +/- 23.32 nM). The class given is functional, cell-based.
For data set [12], the system named is SW-620. As to the kind of experiment: cells. Conditions: Homo sapiens.
Data set [13] relates to SW-620. As to the kind of experiment: cells. As to conditions: Homo sapiens. The source holds these as a separate data set.

Consider `CC(=O)c1ccc(Nc2cc(C)nc3nc(SCc4nc5ccccc5[nH]4)nn23)cc1`, for which the concentration for half-maximal inhibition (IC50) – broadly, the midpoint of a concentration-inhibition curve – with SW-620 [1] amounted to 1630 nM. Moreover, the “fold change (FC)” value in the data set with SW-620 [2] stood at 2.6.

Regarding `O=C(/C=C/c1ccc2ccccc2c1)c1ccc(Nc2c3c(nc4ncnn24)CCC3)cc1`, in the data set on SW-620 [3], the IC50 amounted to 1050 nM. Also, the “fold change (FC)” value with SW-620 [4] is listed as 4.03.

As to `Cc1cc(Nc2ccc(C(=O)/C=C/c3ccc4ccccc4c3)cc2)n2nc(SCCc3ccccc3)nc2n1`, the concentration for half-maximal inhibition (IC50) in the data set on SW-620 [5] came to 670 nM. The “fold change (FC)” value in the data set with SW-620 [6] worked out at 6.31.

Regarding `CC(=O)O[C@H]1C(=O)[C@@]2(C)[C@H]([C@H](OC(=O)c3ccccc3)[C@]3(O)C[C@H](OC(=O)[C@H](O)[C@@H](NC(=O)c4ccccc4)c4ccccc4)C(C)=C1C3(C)C)[C@]1(OC(C)=O)CO[C@@H]1C[C@@H]2O` [PACLITAXEL], the Activity in the data set with SW-620 [7] is 32%; in the data set with Mus musculus [8] it was “Non-Toxic”; with Mus musculus [9], “Non-Toxic”.

Take `COc1ccc(CCN(C)CCCC(C#N)(c2ccc(OC)c(OC)c2)C(C)C)cc1OC` (stereo not given): the half-maximal inhibitory concentration (IC50) with KB 3-1 worked out at 3.84 nM; in the data set with KB-C2, 7.05 nM; in the data set on HEK293 [10], 1.62 nM; in the data set with HEK293 [11], 10.4 µM; with SW-620 [12], 300 nM; in the data set on SW-620 [13] it was 7.11 nM.
